Literature values in patent US20200129524A1, “PERSONALIZED CONTRACEPTIVE FORMULATIONS” (Agile Therapeutics, Inc., priority 2017, published 2020).

Target: T1, SHBG (Homo sapiens, UniProt P04278)
T1 sequence (P04278 30-402): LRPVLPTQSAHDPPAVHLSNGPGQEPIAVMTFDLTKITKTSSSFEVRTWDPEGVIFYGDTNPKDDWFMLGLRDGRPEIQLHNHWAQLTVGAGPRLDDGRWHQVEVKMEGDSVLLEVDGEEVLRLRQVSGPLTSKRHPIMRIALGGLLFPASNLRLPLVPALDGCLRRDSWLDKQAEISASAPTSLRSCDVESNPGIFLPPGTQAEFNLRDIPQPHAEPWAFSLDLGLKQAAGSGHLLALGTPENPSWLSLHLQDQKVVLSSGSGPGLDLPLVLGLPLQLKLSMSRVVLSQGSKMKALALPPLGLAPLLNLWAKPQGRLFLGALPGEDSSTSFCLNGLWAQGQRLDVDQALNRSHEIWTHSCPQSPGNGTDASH
Conditions: testosterone being 100; cited from earlier work

Q: With `C[C@]12CC[C@H]3[C@@H](CCC4=CC(=O)CC[C@@]43C)[C@@H]1CC[C@@H]2O` [testosterone] as the compound, how does the “relative binding affinity to SHBG” value read?
A: 100%
